From patent US8227604B2, “Hybrid 2-aminotetralin and aryl-substituted piperazine compounds and their use in altering CNS activity” (Wayne State University, priority 2001, dated 2012) come the findings set out here.

For data set [1], the target named is T1, D3 receptor (Homo sapiens, UniProt P35462). Kind of data set: Inhibition constants for binding to cloned D3 receptor expressed in HEK cells, [3H]spiperone. To be noted: D3 expressed in HEK cells. As for the experimental part: Inhibition constants for binding to cloned D2L and D3 receptors expressed in HEK cells by displacing [^3H] spiperone were measured for several compounds.
T1 sequence (P35462 whole entry): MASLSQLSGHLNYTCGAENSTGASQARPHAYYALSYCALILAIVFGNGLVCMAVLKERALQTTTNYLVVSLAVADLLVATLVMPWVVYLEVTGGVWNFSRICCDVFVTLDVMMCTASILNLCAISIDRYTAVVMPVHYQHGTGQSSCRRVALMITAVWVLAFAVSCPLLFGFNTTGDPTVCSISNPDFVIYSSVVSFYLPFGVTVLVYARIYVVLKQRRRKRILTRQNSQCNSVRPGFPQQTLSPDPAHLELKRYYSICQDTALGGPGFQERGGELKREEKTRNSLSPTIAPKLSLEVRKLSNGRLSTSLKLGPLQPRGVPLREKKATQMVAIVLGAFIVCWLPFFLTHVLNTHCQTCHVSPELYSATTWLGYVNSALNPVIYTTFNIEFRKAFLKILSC

In data set [2] the target is T2, 5HT1A receptor (Homo sapiens, UniProt P08908).
T2 construct: expressed in transfected cells; host or cells: HA7 cells
T2 sequence (P08908 1-422): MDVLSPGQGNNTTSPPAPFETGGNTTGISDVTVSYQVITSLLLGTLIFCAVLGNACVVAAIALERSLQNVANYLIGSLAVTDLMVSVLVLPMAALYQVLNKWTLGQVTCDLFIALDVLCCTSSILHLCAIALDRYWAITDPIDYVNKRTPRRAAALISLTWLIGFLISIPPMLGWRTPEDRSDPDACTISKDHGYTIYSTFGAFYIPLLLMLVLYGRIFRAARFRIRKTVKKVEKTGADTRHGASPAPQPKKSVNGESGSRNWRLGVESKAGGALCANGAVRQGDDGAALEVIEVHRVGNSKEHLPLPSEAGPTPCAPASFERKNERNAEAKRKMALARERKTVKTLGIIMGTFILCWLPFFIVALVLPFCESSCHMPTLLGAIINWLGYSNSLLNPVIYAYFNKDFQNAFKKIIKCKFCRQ
Kind of data set: Binding affinity at cloned human 5HT1A receptor, [3H]8-OH-DPAT (HA7 cells). As for the experimental part: HA7 cells (human receptor) are grown to confluence in DMEM containing 10% fetal calf serum, 0.05% penicillin-streptomycin (pen-strep), and […] of G418. The cells are scraped from the 100 by 20 mm plates and centrifuged at 500·G for 5 min. The pellet is homogenized in 50 mM Tris-HCl, pH 7.7, with a polytron, centrifuged at 27,000·G and resuspended at 10 mg protein/ml in the same buffer. The homogenate is then stored at −70° C. in 1-ml aliquots.
The thawed cells are washed once and resuspended at 10 mg protein/80 ml in 25 mM Tris-HCl containing 100 μM of ascorbic acid and 10 mM of nialamide at pH 7.4. The assay is performed in triplicate in a 96-well plate. To 100 μl of [^3H]8-OH-DPAT (0.5 nM final conc), […] of test compound or buffer and 0.8 ml of cell homogenate (0.1 mg protein/well) is added to each well by a Tomtec Quadra 96. Nonspecific binding is defined using 1 μM dihydroergotamine. The plates are incubated at 25° C. for 60 min, then filtered. The incubation is terminated by rapid filtration through glass fiber filter paper on a Tomtec cell harvester. The filters are washed four times with ice-cold 50 mM Tris-HCl, pH 7.7, dried overnight, bagged with 10 ml scintillation cocktail before counting for 2 min. on a Wallac Betaplate 1205 liquid scintillation counter.

The target in data set [3] is T1, D3 receptor. Kind of data set: Agonist potency by [3H]thymidine incorporation (mitogenesis), D3. The format is cell-based. Also noted: expressed in transfected cells; host or cells: CHOp-D3 cells. The following applies: for EC50 / Emax: [3H]thymidine incorporation; for Emax: >80% full agonist, read-out: D3 % Maxm Stim. As for the experimental part:
Potential as domaminergenic agonists was assayed by ^3H-thymidine incorporation by standard techniques.
The EC50 values thus indicate intrinsic activities or functional activities of these compounds. The value of % maximum stimulation indicates whether a compound is a partial agonist or full agonist. Generally, a value greater than 80% is considered as a full agonist and anything less than 80% is considered as a partial agonist.
In general terms: Incorporation of labelled thymidine or its analogues reports DNA synthesis.

As for `CCCN(CCCCN1CCN(c2ccccc2)CC1)C1CCc2ccc(O)cc2C1` (stereo not drawn) [Compound 15b, 7-Hydroxyl-2-[N-propyl-(N-(4-phenylpiperazin-1-yl)-butyl)amino]tetralin], in data set [1], the Ki came to 3.79 ± 0.4 nM. The compound further registered a Ki in data set [2] of 18.5 ± 2.46 nM. In data set [3], the EC50 came out at 0.91 ± 0.46 nM and the Emax was found to be 74.9 ± 9.05%. For the same compound, in data set [3] (functional assay), the “agonist character at the D3 receptor” value was “partial agonism”.

For `O=C(NCCCCN(CCCCN1CCN(c2ccccc2)CC1)C1CCc2ccc(O)cc2C1)c1ccccc1` (stereo not drawn) [Compound 10a, 7-Hydroxyl-2-[N-(4-benzoylaminobutyl)-(N-(4-phenylpiperazin-1-yl)-butyl)amino]tetralin], the melting point was in the range of 70 to 71 °C. Besides, the Ki in data set [2] was 171 ± 32.2 nM. Besides, in data set [3], it took 110 ± 33.3 nM to reach a half-maximal effect (EC50) and the Emax came out at 44.1 ± 11.6%.

`N#CCCCN(CCCCN1CCN(c2ccccc2)CC1)C1CCc2ccc(O)cc2C1` (stereo not drawn) [Compound 8, 7-Hydroxy-2-[N-butyonitrile-(N-(4-phenylpiperazin-1-yl)-butyl)amino]tetralin] displayed a Ki in data set [2] of 88.31 ± 0.4 nM. Also, in data set [3], the EC50 is 68.1 ± 36.7 nM and the Emax is 67.1 ± 1.93%.

In data set [2], `O=C(NCCN(CCCCN1CCN(c2ccccc2)CC1)C1CCc2ccc(O)cc2C1)c1ccccc1` (stereo not drawn) [Compound 10b, 7-Hydroxy-2-[N-(2-benzoylamino)ethyl-(N-(4-phenylpiperazin-1-yl)-butyl)amino]tetralin] registered a Ki of 164 ± 27.5 nM. Moreover, in data set [3], the EC50 turned out to be 104 ± 57.3 nM and the Emax was determined as 50.9 ± 12.6%.

The Ki is the dissociation constant of the complex between target and ligand, obtained from inhibition or displacement. What is called EC50 is the concentration at which the effect is half-maximal. Read a low EC50 as an effect from little substance. For orientation: melting point means the temperature, or range, at which the solid turns liquid.
